In patent publication US9815847B2 (Icahn School of Medicine at Mount Sinai, priority 2013, dated 2017):
pIC50: −log10 of the molar value.

Assays:
Assay type in all cases: cell-based
[1] = system: DU145; assay: Cytotoxicity on DU145 cancer cell line; details: Homo sapiens, DU-145; DU145 prostate cancer; 96 h; 0.01-100 μM
Protocol: The effect of the compounds described herein on tumor cells was determined by the assay described by Latham et al., Oncogene 12:827-837 (1996). Tumor cells K562 (chronic myelogenous leukemia; leukemia cell line +ve for Bcr-Abl) or DU145 (prostate cancer) were plated in 12-well dishes at a cell density of 2.5×10^4 cells per well. The plated cells were treated 24 h. later with a DMSO solution of a compound as described herein at multiple concentrations ranging from 0.01 μM to 100 μM. The plates were examined 96 h. later under an inverted microscope, Olympus CK-2 using a 10× objective, and compound activity was noted by physical observation. When necessary, the total number of viable cells was determined by trypsinizing the wells and counting the number of viable cells, as determined by trypan blue exclusion, using a hemacytometer.

[2] = system: A431; assay: Cytotoxicity assay, dose response end point; details: Homo sapiens, A-431; A431, epidermoid carcinoma; 96 h
Protocol: (§1) The following tumor cell lines were tested using a dose response end point assay system with compound (8h). The cells were grown in either DMEM or RPMI supplemented with 10% fetal bovine serum and 1 unit/mL Penicillin-Streptomycin solution. The tumor cells were plated into 6-well dishes at a cell density of 1.0×10^5 cells/mL/well and the test compound was added 24 h. later at various concentrations. Cell counts were determined from duplicate wells after 96 h. of treatment. The total number of viable cells was determined by trypan blue exclusion.

[3] = system: BT474; assay: Cytotoxicity assay, dose response end point; details: Homo sapiens, BT-474; BT474, Breast carcinoma; 96 h
Protocol: as §1

[4] = system: CAPAN-1; assay: Cytotoxicity assay, dose response end point; details: Homo sapiens; CAPAN-1, pancreatic ductal adenocarcinoma; 96 h
Protocol: as §1

[5] = system: DAUDI; assay: Cytotoxicity assay, dose response end point; details: Homo sapiens, Burkitt's lymphoma, 96 h
Protocol: as §1

[6] = system: HELA; assay: Cytotoxicity assay, dose response end point; details: Homo sapiens, Cervical adenocarinoma, 96 h
Protocol: as §1

[7] = system: HEL; assay: Cytotoxicity assay, dose response end point; details: human erythroleukemia, 96 h
Protocol: as §1

[8] = system: HFL-1; assay: Cytotoxicity assay, dose response end point; details: Homo sapiens, HFL1; HFL-1, fetal lung fibroblast; 96 h
Protocol: as §1

[9] = system: HL-60/MX2; assay: Cytotoxicity assay, dose response end point; details: Homo sapiens, HL60/MX2; HL-60/MX2, promyelocytic leukaemia; 96 h
Protocol: as §1

[10] = system: K562; assay: Cytotoxicity assay, dose response end point; details: Homo sapiens; K562, chronic myelogenous leukemia; 96 h
Protocol: as §1

[11] = system: KG-1a; assay: Cytotoxicity assay, dose response end point; details: Homo sapiens, acute myelogenous leukemia, 96 h
Protocol: as §1

[12] = system: Nalmalwa; assay: Cytotoxicity assay, dose response end point; details: Burkitt's lymphoma, 96 h
Protocol: as §1

[13] = system: PANC 10.05; assay: Cytotoxicity assay, dose response end point; details: Homo sapiens, Panc1005; PANC 10.05, pancreatic adenocarcinoma; 96 h
Protocol: as §1

[14] = system: RAJI; assay: Cytotoxicity assay, dose response end point; details: Homo sapiens, Burkitt's lymphoma, 96 h
Protocol: as §1

[15] = system: SU.86.86; assay: Cytotoxicity assay, dose response end point; details: Homo sapiens; SU.86.86, pancreatic ductal carcinoma; 96 h
Protocol: as §1

Q: With CN1CCN(c2ccc(Nc3ncc(/C=C/C#N)c(NC4CCCC4)n3)cc2)CC1 [Compound 8h, 3-{4-Cyclopentylamino-2-[4-(4-methylpiperazin-1-yl)phenylamino]pyrimidin-5-yl}acrylonitrile] as the molecule, how does the pIC50 [1] read?
A: > 6.00

Q: What about the GI50 [2] of the same molecule?
A: 100 nM

Q: And the GI50 [3]?
A: 2500 nM

Q: What about the GI50 [4] of the same molecule?
A: 100 nM

Q: What about the GI50 [5] of the same molecule?
A: 100 nM

Q: What about the GI50 [6] of the same molecule?
A: > 5000 nM

Q: And the GI50 [7]?
A: < 250 nM

Q: And the GI50 [8]?
A: 100 nM

Q: And the GI50 [9]?
A: 250 nM

Q: And the GI50 [10]?
A: 40 nM

Q: And the GI50 [11]?
A: < 20 nM

Q: What about the GI50 [12] of the same molecule?
A: 200 nM

Q: And the GI50 [13]?
A: > 5000 nM

Q: And the GI50 [14]?
A: < 20 nM

Q: What about the GI50 [15] of the same molecule?
A: 5000 nM
